In brackets after ≈: the same amount, converted by molar mass.
Key:
Experiment in all cases: ≥ marks a high value that may be exact or a test limit, other limits are often not marked, values filed in µg/mL are converted to µM
[1] = tested on: Proteus vulgaris KCTC 2433
[2] = tested on: Staphylococcus epidermidis KCTC 1917
[3] = tested on: Bacillus subtilis KCTC 3068
[4] = tested on: Staphylococcus aureus KCTC 1621
[5] = tested on: Salmonella typhimurium KCTC 1926
[6] = tested on: Escherichia coli KCTC 1682
[7] = tested on: Enterococcus faecalis KCTC 2011
[8] = tested on: Pseudomonas aeruginosa KCTC 1637
[9] = tested on: Salmonella enterica subsp. enterica serovar Adelaide CICC 21505
[10] = tested on: Salmonella enterica subsp. enterica serovar Thompson CICC 21480
[11] = tested on: Staphylococcus aureus ATCC 43300
[12] = tested on: Salmonella enterica subsp. enterica serovar Typhimurium CICC 21483
[13] = tested on: Staphylococcus epidermidis ATCC 12228
[14] = tested on: Salmonella enterica subsp. arizonae CICC 21506
Escherichia coli O157:H7 = tested on: Escherichia coli O157:H7
[15] = tested on: Salmonella enterica subsp. enterica serovar Jerusalem CICC 21651
[16] = tested on: Salmonella enterica subsp. enterica serovar Bonn CICC 21677
[17] = tested on: Salmonella enterica subsp. enterica serovar Senftenberg CICC 21502
[18] = tested on: Salmonella enterica subsp. enterica serovar Potsdam CICC 21500
[19] = tested on: Salmonella enterica subsp. enterica serovar Blockley CICC 21489
[20] = tested on: Salmonella enterica subsp. enterica serovar Kentucky CICC 21488
[21] = tested on: Salmonella enterica subsp. enterica serovar Heidelberg CICC 21487
[22] = tested on: Candida albicans ATCC 10231
[23] = tested on: Salmonella enterica subsp. enterica serovar Bovismorbificans CICC 21499
[24] = tested on: Salmonella typhimurium CMCC 50115
[25] = tested on: Salmonella enterica subsp. enterica serovar Enteritidis CMCC 50041
[26] = tested on: Salmonella enterica subsp. enterica serovar Braenderup ATCC H9812
[27] = tested on: Salmonella enterica subsp. enterica serovar Saintpaul CICC 21486
[28] = tested on: Salmonella enterica subsp. enterica serovar Miami CICC 21509
[29] = tested on: Enterococcus faecalis ATCC 29212
[30] = tested on: Salmonella enterica subsp. enterica serovar Dublin CICC 21497
[31] = tested on: Salmonella enterica subsp. enterica serovar Meleagridis CICC 21511
[32] = tested on: Salmonella enterica subsp. enterica serovar Anatum CICC 21498
[33] = tested on: Salmonella enterica subsp. enterica serovar Wandsworth CICC 21504
[34] = tested on: Salmonella enterica subsp. enterica serovar Montevideo CICC 21588
[35] = tested on: Salmonella enterica subsp. enterica serovar Agona CICC 21586
[36] = tested on: Staphylococcus aureus ATCC 29213
[37] = tested on: Salmonella enterica subsp. enterica serovar Dakar CICC 21507
[38] = tested on: Salmonella enterica subsp. enterica serovar Aberdeen CICC 21492
[39] = tested on: Salmonella enterica subsp. enterica serovar Eastbourne CICC 21508
[40] = tested on: Enterobacter cloacae beta-12
Candida albicans MDM8 = tested on: Candida albicans MDM8
[41] = tested on: Bacillus megaterium ATCC 10778
[42] = tested on: Pseudomonas aeruginosa ATCC 27853
Escherichia coli SBS 363 = tested on: Escherichia coli SBS 363
[43] = tested on: Bacillus subtilis ATCC 6633
Micrococcus luteus A270 = tested on: Micrococcus luteus A270
[44] = tested on: Candida tropicalis IOC 4560
[45] = tested on: Serratia marcescens ATCC 4112
[46] = tested on: Staphylococcus aureus ATCC 15752
[47] = tested on: Escherichia coli KCTC 2223
[48] = tested on: Micrococcus luteus ATCC 10240
[49] = tested on: Salmonella typhimurium KCTC 2370
[50] = tested on: Micrococcus luteus DSM 1790
Escherichia coli BL21AI = tested on: Escherichia coli BL21AI

CC(C)C[C@H](NC(=O)[C@H](CC(C)C)NC(=O)[C@H](CCCCN)NC(=O)[C@H](CC(C)C)NC(=O)[C@H](CC(C)C)NC(=O)[C@H](CCCCN)NC(=O)[C@H](CCCCN)NC(=O)[C@H](CC(C)C)NC(=O)[C@H](CC(C)C)NC(=O)[C@H](CCCCN)NC(=O)[C@H](CCCCN)NC(=O)[C@H](Cc1c[nH]c2ccccc12)NC(=O)[C@@H](N)CCCCN)C(=O)N[C@@H](CCCCN)C(=O)N[C@@H](CCCCN)C(=O)O [KWKKLLKKLLKLLKK]
MIC [1]: ≥ 32 µM | MIC [2]: 22.6 µM (≈ 43.2 µg/mL) | MIC [3]: 11.3 µM (≈ 21.6 µg/mL) | MIC [4]: 8 µM (≈ 15.3 µg/mL) | MIC [5]: ≥ 32 µM | MIC [6]: 22.6 µM (≈ 43.2 µg/mL) | MIC [7]: 16 µM (≈ 30.5 µg/mL) | MIC [8]: ≥ 32 µM

C[C@@H](O)[C@@H]1NC(=O)[C@@H](NC(=O)[C@H](CCCCN)NC(=O)[C@H](Cc2c[nH]c3ccccc23)NC(=O)[C@H](CCCCN)NC(=O)[C@@H](N)Cc2c[nH]c3ccccc23)CSSC[C@@H](C(=O)N[C@@H](CCCCN)C(=O)N[C@@H](Cc2c[nH]c3ccccc23)C(=O)N[C@@H](CCCCN)C(=O)N[C@@H](Cc2c[nH]c3ccccc23)C(N)=O)NC(=O)CNC(=O)[C@H](CO)NC(=O)[C@H](CCCCN)NC1=O [WKWKCTKSGCKWKW]
MIC [9]: 2.16 µM (≈ 3.99 µg/mL) | MIC [10]: 2.16 µM (≈ 3.99 µg/mL) | MIC [11]: 4.31 µM (≈ 7.99 µg/mL) | MIC [12]: 2.16 µM (≈ 3.99 µg/mL) | MIC [13]: 2.16 µM (≈ 3.99 µg/mL) | MIC [14]: 2.16 µM (≈ 3.99 µg/mL) | MIC (Escherichia coli O157:H7): 2.16 µM (≈ 3.99 µg/mL) | MIC [15]: 4.31 µM (≈ 7.99 µg/mL) | MIC [16]: 1.08 µM (≈ 2 µg/mL) | MIC [17]: 2.16 µM (≈ 3.99 µg/mL) | MIC [18]: 1.08 µM (≈ 2 µg/mL) | MIC [19]: 4.31 µM (≈ 7.99 µg/mL) | MIC [20]: 2.16 µM (≈ 3.99 µg/mL) | MIC [21]: 1.08 µM (≈ 2 µg/mL) | MIC [22]: 1.08 µM (≈ 2 µg/mL) | MIC [23]: 2.16 µM (≈ 3.99 µg/mL) | MIC [24]: 2.16 µM (≈ 3.99 µg/mL) | MIC [25]: 4.31 µM (≈ 7.99 µg/mL) | MIC [26]: 2.16 µM (≈ 3.99 µg/mL) | MIC [27]: 1.08 µM (≈ 2 µg/mL) | MIC [28]: 4.31 µM (≈ 7.99 µg/mL) | MIC [29]: 1.08 µM (≈ 2 µg/mL) | MIC [30]: 2.16 µM (≈ 3.99 µg/mL) | MIC [31]: 2.16 µM (≈ 3.99 µg/mL) | MIC [32]: 2.16 µM (≈ 3.99 µg/mL) | MIC [33]: 2.16 µM (≈ 3.99 µg/mL) | MIC [34]: 2.16 µM (≈ 3.99 µg/mL) | MIC [35]: 2.16 µM (≈ 3.99 µg/mL) | MIC [36]: 2.16 µM (≈ 3.99 µg/mL) | MIC [37]: 2.16 µM (≈ 3.99 µg/mL) | MIC [38]: 2.16 µM (≈ 3.99 µg/mL) | MIC [39]: 2.16 µM (≈ 3.99 µg/mL)

CC(C)C[C@H](NC(=O)[C@H](C)NC(=O)[C@H](CCCN=C(N)N)NC(=O)[C@H](CC(C)C)NC(=O)[C@@H](N)Cc1ccccc1)C(=O)N[C@@H](Cc1c[nH]c2ccccc12)C(=O)N[C@@H](CC(N)=O)C(=O)N[C@H](C(=O)N[C@@H](C)C(=O)N[C@@H](CCCCN)C(=O)N[C@@H](CO)C(=O)N[C@H](C(=O)N[C@@H](Cc1ccccc1)C(N)=O)C(C)C)C(C)C [FLRALWNVAKSVF]
MIC [40]: 12.5 µM (≈ 19.4 µg/mL) | MIC (Candida albicans MDM8): 3.1 µM (≈ 4.8 µg/mL) | MIC [41]: 1.6 µM (≈ 2.48 µg/mL) | MIC [42]: 12.5 µM (≈ 19.4 µg/mL) | MIC (Escherichia coli SBS 363): 1.6 µM (≈ 2.48 µg/mL) | MIC [43]: 0.8 µM (≈ 1.24 µg/mL) | MIC (Micrococcus luteus A270): 1.6 µM (≈ 2.48 µg/mL) | MIC [44]: 1.6 µM (≈ 2.48 µg/mL) | MIC [36]: 1.6 µM (≈ 2.48 µg/mL) | MIC [45]: 0.4 µM (≈ 0.62 µg/mL)

CC(C)[C@H](NC(=O)[C@H](CCCCN)NC(=O)[C@@H](N)CCCN=C(N)N)C(=O)N[C@@H](CCCN=C(N)N)C(=O)NCC(=O)N1CCC[C@H]1C(=O)N1CCC[C@H]1C(=O)O [RKVRGPP]
MIC [46]: ≥ 32 µM | MIC [47]: ≥ 32 µM | MIC [48]: ≥ 32 µM | MIC [49]: ≥ 32 µM

CC[C@H](C)[C@H](NC(=O)[C@H](CCCN=C(N)N)NC(=O)[C@H](CCCN=C(N)N)NC(=O)[C@@H]1CCCN1C(=O)[C@@H]1CCCN1C(=O)[C@@H](NC(=O)[C@@H]1CCCN1C(=O)[C@H](CCCN=C(N)N)NC(=O)[C@@H]1CCCN1C(=O)[C@H](CC(C)C)NC(=O)[C@H](Cc1ccc(O)cc1)NC(=O)[C@@H]1CCCN1C(=O)[C@@H]1CCCN1C(=O)[C@H](CCCCN)NC(=O)[C@H](CC(=O)O)NC(=O)[C@@H](N)C(C)C)[C@@H](C)O)C(=O)N[C@@H](Cc1ccc(O)cc1)C(=O)N[C@@H](CC(N)=O)C(=O)O [VDKPPYLPRPTPPRRIYN]
MIC [50]: 28.7 µM (≈ 62.5 µg/mL) | MIC (Escherichia coli BL21AI): ≥ 57.4 µM

Source: DBAASP
